Results as given in patent publication US20150005237A1, “PEPTIDIC INHIBITOR OF SIGNAL TRANSMISSION FROM G-ALPHA-S TO G-ALPHA-I-COUPLED RECEPTOR CASCADES” (UNIVERSITÄT INNSBRUCK, priority 2011, published 2015).
Blank lines part the entries; values can stand above or below the compound they belong to. Where no end group is shown, it is not given here.

Columns and labels:
Type in all cases: cell-based
[1] = tested on: Erk1/2 phosphorylation in δOR-HEK293 cells; experiment: MAPK-phosphorylation assay (Erk1/2) in δOR-HEK293 cells; details: for SNC80-induced Erk1/2 phosphorylation (amplitude and duration): pre-treatment before SNC80
Procedure: δOR-HEK293 cells were grown in 12 or 24 well plate formats (DMEM supplemented with 10% FBS). Either 24 or 48 hours after splitting or co-transfection in overexpression studies [transfected with constructs encoding the regulatory (RIIβ) or catalytic subunits (PKAc) of PKA] confluent cells were treated with inhibitors (KT5720 for 60 minutes, pertussis toxin for 16 hours), chemical modulators (forskolin, 6-MBC-cAMP, Sp-5,6-DCI-cBIMPS, Sp-8-PIP-cAMPs, 2-Cl-8-MA-cAMP [all for 15 minutes] or Rp-cAMP for 60 minutes) and/or the δOR ligand SNC80 (for either 3, 6, 10 or 15 minutes). cAMP analogs purchased from Biolog (6-MBC-cAMP, #M012; Sp-5,6-DCI-cBIMPS, #D014; Sp-8-PIP-cAMPs, #P005, 2-Cl-8-MA-cAMP, #C080; Rp-cAMP, #A002S) (see Bobrovskaya et al., Cell. Signal. 19, 1141-1149 (2007); Nguyen et al., Cell. Signal. 16, 1141-1151 (2004); Maronde et al., J. Pineal Res. 27, 170-182 (1999); Ogreid et al., Eur. J. Biochem. 181, 19-31 (1989); Poppe et al., Nat. Methods 5, 277-278 (2008)).
Following treatments at 37° C. for 3, 6, 10 or 15 minutes the reactions were stopped by direct addition of Laemmli sample buffer. Equal amounts of protein (lysates normalized to loading control proteins) were subjected to polyacrylamide gel electrophoresis followed by immunoblotting (IB). To analyze the phosphorylation of Erk1/2 we applied the Phospho-p44/42 MAP Kinase antibody (Cell Signaling Technology, #9101). Quantitative densitometry of immuno blot bands was performed using the program ImageQuant 5.2 (Molecular Dynamics).

[2] = biological target: T1, RIIβ-RlucF[1]:PKAc-RlucF[2] complex (Rattus norvegicus, UniProt P12369); experiment: Renilla luciferase PCA of PKA holoenzyme dissociation in HEK293T cells; details: HEK293T cells stably expressing the PKA reporter
T1 construct: Renilla luciferase PCA fragment F[1]; expressed in transfected cells
T1 sequence (P12369 whole entry, the tested form may be a part, one chain of several): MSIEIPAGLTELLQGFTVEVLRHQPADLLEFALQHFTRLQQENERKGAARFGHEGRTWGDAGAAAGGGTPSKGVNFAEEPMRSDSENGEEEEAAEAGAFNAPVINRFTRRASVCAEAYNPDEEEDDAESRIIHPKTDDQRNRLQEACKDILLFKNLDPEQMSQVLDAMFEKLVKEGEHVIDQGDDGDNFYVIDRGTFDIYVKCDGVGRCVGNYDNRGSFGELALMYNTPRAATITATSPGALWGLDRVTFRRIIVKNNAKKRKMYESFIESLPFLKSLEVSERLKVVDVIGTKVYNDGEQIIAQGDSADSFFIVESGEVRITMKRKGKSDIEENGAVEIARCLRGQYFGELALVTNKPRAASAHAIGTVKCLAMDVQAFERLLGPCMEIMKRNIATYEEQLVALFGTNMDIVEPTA
Procedure: We have generated a stable HEK293T cell line coexpressing the PCA fusion proteins RIIβ-Rluc-F[1] and PKAc-RlucF[2], as previously described. All cells were grown in DMEM supplemented with 10% FBS. We treated confluent HEK293T cells (stably expressing the PKA reporter) grown in 24 well plate format with varying concentrations and combinations of cAMP analogs 6-MBC-cAMP and Sp-5,6-DCI-cBIMPS (15 min; Biolog, Germany). We pretreated confluent HEK293T cells (stably expressing the PKA reporter) grown in 24 well plate format with 250 μM of Rp-cAMP (60 minutes) or with 6-MBC-cAMP and Sp-5,6-DCI-cBIMPS (=RII selective, each 50 μM; 15 min). We pretreated confluent HEK293T cells (stably expressing the PKA reporter) grown in 24 well plate format for 30 minutes with TAT or Reggai fusion peptides (˜3 μM) followed by exposure to forskolin (100 μM; 15 min). Following treatment, growth medium was exchanged and cells were resuspended in 350 μl of PBS. 100 μl of cell suspensions were transferred to 96-well plates and subjected to bioluminescence analysis using the LMaxTMII384 luminometer (Molecular Devices). Rluc bioluminescence signals were integrated for 10 seconds following addition of the Rluc substrate benzyl-coelenterazine (5 μM; Nanolight). […]

trimeric Gαi:βγ complex = experiment: BRET assay of Gαi1:Gγ2 conformational rearrangement in δOR-HEK293 cells
Source text: δOR-HEK293 cells grown in DMEM supplemented with 10% FBS were transiently transfected with the following constructs: For measurements of the interactions of G protein subunits among each other and with the receptor we transfected Gαi1 with the Renilla luciferase (Rluc) inserted at amino acid position 91 and the UV-shifted GFP variant GFP10 (substitutions: P64L, S147P, and S202P) fused to the C-terminus of […] or the UV-shifted variant GFP2 (substitution: F64L) fused to the C-terminus of the δOR. In overexpression studies, we coexpressed regulatory (RIIβ) or catalytic subunits (PKAc) of PKA. […] Total fluorescence and bioluminescence were evaluated for each well using a FlexStation2 (Molecular Devices) and Mithras LB 940 (Berthold Technologies), respectively. uvGFP fluorescence was excited at 400 nm and read at 515 nm. Fluorescence values were corrected by subtracting the auto-fluorescence of cells not expressing uvGFP. BRET between Rluc and GFP2 or GFP10 was measured after the addition of 5 μM Rluc substrate DeepBlueC (bisdeoxy-coelenterazine, PerkinElmer, Lifescience). BRET signals were derived from the emission detected with the energy acceptor filter (515±15 nm; GFP2/10) divided by the emission detected with the energy donor filter (410±40 nm; Rluc/Rluc3). […]

R:Gαi3 complexes = experiment: cAMP agarose precipitation of R:Gαi3 complexes from COS7 cells; details: forskolin pre-treatment 15 minutes, 2AHA-cAMP-coupled agarose beads
Procedure: HEK293, U2OS cells and total brains of mice were homogenized using a Potter S (B. Braun Biotech International) with 15 strikes (lysis buffer: 10 mM sodium phosphate pH 7.2, 150 mM NaCl, 0.05% Triton X100 supplemented with standard protease inhibitors). We clarified the lysate (13000 rpm, 15 min) and precipitated PKA regulatory subunit associated protein complexes with PKA selective 8-AHA-cAMP agarose and Rp-8-AHA-cAMP agarose resin (Biolog, […]) for two hours at 4° C. As negative control experiment we added excess of cAMP (5 mM) to the brain lysates to mask the cAMP binding sites in the R subunits for precipitation. Resin associated proteins were washed four times with lysis buffer and eluted with Laemmli sample buffer. Equal amounts of protein (lysates normalized to loading control proteins) were subjected to polyacrylamide gel electrophoresis followed by immunoblotting with indicated antibodies. We performed densitometric quantification of RIIβ, PKAc and Gαi3 (in each case normalized on the most abundant precipitated protein from the same immunoblot (n=3) to compare complex formation and fold enrichment between holoenzyme (precipitated with Rp-8-AHA-cAMP) and activated R complexes (precipitated with 8-AHA-cAMP).
We then tested whether pre-dissociating endogenous R/Reg and PKAc/Cat subunits would change the stoichiometry of R:Gαi3 or R:PDK1 complexes. […]

PKA kinase activity = experiment: CREB phosphorylation monitoring of PKA kinase activity; details: conditions used for the Erk1/2 experiments
Procedure: We also tested the impact of R:Gαi complex formation on the evolutionary conserved route of signal transmission from Gαi to MAPK9. […] Pre-treatment with forskolin potentiated the SNC80-induced Erk1/2 phosphorylation (FIG. 2c). […] To exclude the possibility that PKA kinase activity could account for this potentiation, we pre-treated cells with the PKA inhibitor KT5720 (unless noted otherwise, all subsequent experiments were carried out in the presence of this kinase activity inhibitor). We confirmed that KT5720 inhibits PKA kinase activity under the conditions used by monitoring CREB phosphorylation (activated independently of Gαi signalling).

Gαs- to Gαi-cascades = experiment: Reggai peptide applied in living HEK293 cells: signal transmission from Gαs- to Gαi-cascades; details: HEK293 cell line
Source text: The present inventors identified and successfully applied the Reggai peptide directly in the living cells, in particular cell culture, HEK293 cell line, and changed the original and conserved Reggai sequence in a model organism (budding yeast) to prevent signal transmission from Gαs- to Gαi-cascades. The Reggai peptide had no effect on sole activation of either cascade, just in the case of simultaneous activation of both types of receptors the Gαs triggered and PKA-mediated elevation of Gαi activities was abolished. In the mammalian system the present inventors used biochemical tools to measure changes of cAMP levels, G protein activities and MAPK activation downstream of Gαi-coupled receptors upon formation of the dynamic interaction between PKA and Gαi.

Compound: Nc1ncnc2c1nc(N1CCCCC1)n2[C@@H]1O[C@@H]2COP(=O)(O)O[C@H]2[C@H]1O [8-PIP-cAMP]
SNC80-induced Erk1/2 phosphorylation (amplitude and duration) [1]: no effect

Compound: Nc1ncnc2c1ncn2[C@@H]1O[C@@H]2COP(O)(=S)O[C@H]2[C@H]1O (stereo partly drawn) [Rp-cAMP]
PKA holoenzyme dissociation [2]: prevented
SNC80+RegII subunit activator and SNC80+forskolin mediated Erk1/2 phosphorylation ([1]; pre-treatment 250 μM, 60 minutes): decreased

Compound: CNc1nc2c(N)nc(Cl)nc2n1C1O[C@@H]2COP(=O)([O-])O[C@H]2[C@H]1O.[Na+] (stereo partly drawn) [2-Cl-8-MA-cAMP]
SNC80-induced Erk1/2 phosphorylation (amplitude and duration) [1]: no effect

Compound: C=C[C@@]1(C)CC(=O)[C@]2(O)[C@@]3(C)[C@@H](O)CCC(C)(C)[C@@H]3[C@H](O)[C@H](OC(C)=O)[C@@]2(C)O1 [forskolin]
conformation of the trimeric G-protein complex (trimeric Gαi:βγ complex; treatment alone, without SNC80): no effect
fold enrichment of R:Gαi3 complexes (R:Gαi3 complexes): 3.8 (SD±0.99) fold

PKA kinase activity (CREB phosphorylation) (PKA kinase activity): inhibits
Compound: CCCCCCOC(=O)[C@]1(O)C[C@@H]2O[C@@]1(C)n1c3ccccc3c3c4c(c5c6ccccc6n2c5c31)C(=O)NC4 [KT5720]

Compound: 6-MBC-cAMP
SNC80-induced Erk1/2 phosphorylation (amplitude and duration) [1]: potentiated

Compound: C=CCN1C[C@H](C)N([C@H](c2ccc(C(=O)N(CC)CC)cc2)c2cccc(OC)c2)C[C@H]1C [SNC80]
BRET between Gαi1 and Gγ2 (trimeric Gαi:βγ complex; agonist alone): decrease
Erk1/2 phosphorylation ([1]; agonist alone): large but transient increase

Compound: OC1C2OP(O)(=S)OCC2OC1n1cnc2cc(Cl)c(Cl)cc21 (stereo not drawn) [Sp-5,6-DCI-cBIMPS]
SNC80-induced Erk1/2 phosphorylation (amplitude and duration) [1]: potentiated

Compound: QGDSADSFFIVESGE (not fully specified; listed as Homo sapiens) [Reggai peptide, PKA RIIβ-derived 15 amino acid peptide; applied to cells as fusion with GST, TAT and Flag]
PKA holoenzyme dissociation [2]: Neither Reggai nor TAT control peptide pre-treatment of HEK293T cells had any effect
potentiation of SNC80-mediated Erk1/2 phosphorylation using RII/RegII subunit activators ([1]; fusion peptides ~3 μM, 30 minutes): prevented
sole activation of either cascade (Gαs or Gαi) (Gαs- to Gαi-cascades; only one cascade activated): no effect
Gαs triggered and PKA-mediated elevation of Gαi activities (Gαs- to Gαi-cascades; simultaneous activation of both types of receptors): abolished
